Test results from patent publication US9326506B2, “Preparation method, agricultural composition and applications of natural brassinolide analogs” (CHENGDU NEWSUN CROPSCIENCE CO., LTD, priority 2012, dated 2016).

Test system: rice
Experiment: Low temperature assay on rice seedlings
Assay type: in vivo
Description: According to a low temperature assay, we measured parameters including plant height, number of leaf, area of leaf, number of tiller, weight of root at low temperature to completely determine effects of the natural brassinolide analogues on the resistance to low temperature of a plant.
The natural brassinolide analogues, BR1, BR2, BR3, BR4, BR5 and BR6, used herein, were those prepared by the method of Example 1. Respectively the analogues were dissolved into 95% (V/V) ethanol solution, and then diluted with pure water to 1 mg/L, 0.1 mg/L, 0.01 mg/L, 0.001 mg/L and 0.0001 mg/L. In addition, pure water was used as a control.
After rice seeds were disinfected by using 5% sodium hypochlorite solution treatment, they were rinsed with distilled water until their pH>7, placed into a petri dish in a dark incubator, and cultured by using water at 30° C.±2° C. for 9 days. Then respectively the nine-day-old etiolated seedlings of rice were immersed in the above solutions containing different concentrations of the natural brassinolide analogues or pure water, and cultured at the temperature of 1° C., 2° C., 3° C., 4° C. and 5° C. for 24 hr. The parameters including plant height, area of leaf and weight of root after 3, 6, 9 and 12 days and number of leaf and number of tiller after 12 days were measured.

## CC(C)[C@H](C)[C@@H](O)[C@H](O)[C@@H](C)[C@H]1CCC2C3CC(=O)C4C[C@H](O)CC[C@]4(C)C3CC[C@@]21C (stereo partly shown) [BR4]
0.01 mg/l, 3 °C, 9 days
  Height: 7.5 cm
  Weight of root: 2.9 g
0.01 mg/l, 3 °C, 12 days
  Area of leaf: 13.2 cm^2
  Height: 7.8 cm
  Number of leaf: 3
  Number of tiller: 2
  Weight of root: 2.9 g
0.01 mg/l, 4 °C, 3 days
  Area of leaf: 10.8 cm^2
  Height: 7 cm
  Weight of root: 2.5 g
0.01 mg/l, 4 °C, 6 days
  Area of leaf: 12.4 cm^2
  Height: 7.4 cm
  Weight of root: 2.7 g
0.01 mg/l, 4 °C, 9 days
  Area of leaf: 13 cm^2
  Height: 7.7 cm
  Weight of root: 2.9 g
0.01 mg/l, 4 °C, 12 days
  Area of leaf: 13.5 cm^2
  Height: 7.8 cm
  Number of leaf: 3
  Number of tiller: 2
  Weight of root: 3.0 g
0.01 mg/l, 5 °C, 3 days
  Area of leaf: 10.3 cm^2
  Height: 7.2 cm
  Weight of root: 2.8 g
0.01 mg/l, 5 °C, 6 days
  Area of leaf: 13.1 cm^2
  Height: 7.4 cm
  Weight of root: 3.0 g
0.01 mg/l, 5 °C, 9 days
  Area of leaf: 16.4 cm^2
  Height: 7.8 cm
  Weight of root: 3.4 g
0.01 mg/l, 5 °C, 12 days
  Area of leaf: 17 cm^2
  Height: 8.2 cm
  Number of leaf: 4
  Number of tiller: 3
  Weight of root: 3.9 g
0.1 mg/l, 1 °C, 3 days
  Area of leaf: 10 cm^2
  Height: 7.1 cm
  Weight of root: 2.8 g
0.1 mg/l, 1 °C, 6 days
  Area of leaf: 11 cm^2
  Height: 7.2 cm
  Weight of root: 2.9 g
0.1 mg/l, 1 °C, 9 days
  Area of leaf: 12.1 cm^2
  Height: 7.3 cm
  Weight of root: 3.3 g
0.1 mg/l, 1 °C, 12 days
  Area of leaf: 13.1 cm^2
  Height: 7.3 cm
  Number of leaf: 3
  Number of tiller: 3
  Weight of root: 3.6 g
0.1 mg/l, 2 °C, 3 days
  Area of leaf: 10.2 cm^2
  Height: 7.1 cm
  Weight of root: 2.8 g
0.1 mg/l, 2 °C, 6 days
  Area of leaf: 11.2 cm^2
  Height: 7.1 cm
  Weight of root: 3.1 g
0.1 mg/l, 2 °C, 9 days
  Area of leaf: 12.6 cm^2
  Height: 7.3 cm
  Weight of root: 3.1 g
0.1 mg/l, 2 °C, 12 days
  Area of leaf: 13.2 cm^2
  Height: 7.4 cm
  Number of leaf: 3
  Number of tiller: 3
  Weight of root: 3.2 g
0.1 mg/l, 3 °C, 3 days
  Area of leaf: 10.5 cm^2
  Height: 7.3 cm
  Weight of root: 2.5 g
0.1 mg/l, 3 °C, 6 days
  Area of leaf: 12 cm^2
  Height: 7.4 cm
  Weight of root: 2.7 g
0.1 mg/l, 3 °C, 9 days
  Area of leaf: 12.1 cm^2
  Height: 7.8 cm
  Weight of root: 2.7 g
0.1 mg/l, 3 °C, 12 days
  Area of leaf: 13.4 cm^2
  Height: 7.9 cm
  Number of leaf: 3
  Number of tiller: 2
  Weight of root: 2.9 g
0.1 mg/l, 4 °C, 3 days
  Area of leaf: 10.6 cm^2
  Height: 7.3 cm
  Weight of root: 2.5 g
0.1 mg/l, 4 °C, 6 days
  Area of leaf: 12 cm^2
  Height: 7.4 cm
  Weight of root: 2.6 g
0.1 mg/l, 4 °C, 9 days
  Area of leaf: 13.2 cm^2
  Height: 7.8 cm
  Weight of root: 2.9 g
0.1 mg/l, 4 °C, 12 days
  Area of leaf: 13.4 cm^2
  Height: 8 cm
  Number of leaf: 3
  Number of tiller: 2
  Weight of root: 3.1 g
0.1 mg/l, 5 °C, 3 days
  Area of leaf: 11 cm^2
  Height: 7.4 cm
  Weight of root: 2.9 g
0.1 mg/l, 5 °C, 6 days
  Area of leaf: 12.1 cm^2
  Height: 7.5 cm
  Weight of root: 3.1 g
0.1 mg/l, 5 °C, 9 days
  Area of leaf: 16.2 cm^2
  Height: 8 cm
  Weight of root: 3.5 g
0.1 mg/l, 5 °C, 12 days
  Area of leaf: 17.8 cm^2
  Height: 8.1 cm
  Number of leaf: 3
  Number of tiller: 2
  Weight of root: 4.1 g
1 mg/l, 1 °C, 3 days
  Area of leaf: 10 cm^2
  Height: 6.8 cm
  Weight of root: 2.6 g
1 mg/l, 1 °C, 6 days
  Area of leaf: 11 cm^2
  Height: 7 cm
  Weight of root: 3.1 g
1 mg/l, 1 °C, 9 days
  Area of leaf: 12.4 cm^2
  Height: 7.1 cm
  Weight of root: 3.2 g
1 mg/l, 1 °C, 12 days
  Area of leaf: 13 cm^2
  Height: 7.7 cm
  Number of leaf: 3
  Number of tiller: 3
  Weight of root: 3.7 g
1 mg/l, 2 °C, 3 days
  Area of leaf: 10.1 cm^2
  Height: 7 cm
  Weight of root: 2.55 g
1 mg/l, 2 °C, 6 days
  Area of leaf: 11.7 cm^2
  Height: 7.2 cm
  Weight of root: 3.0 g
1 mg/l, 2 °C, 9 days
  Area of leaf: 12 cm^2
  Height: 7.4 cm
  Weight of root: 3.2 g
1 mg/l, 2 °C, 12 days
  Area of leaf: 13 cm^2
  Height: 8 cm
  Number of leaf: 3
  Number of tiller: 3
  Weight of root: 3.7 g
1 mg/l, 3 °C, 3 days
  Area of leaf: 10.4 cm^2
  Height: 7 cm
  Weight of root: 2.5 g
1 mg/l, 3 °C, 6 days
  Area of leaf: 12 cm^2
  Height: 7.5 cm
  Weight of root: 2.6 g
1 mg/l, 3 °C, 9 days
  Area of leaf: 12 cm^2
  Height: 7.7 cm
  Weight of root: 2.6 g
1 mg/l, 3 °C, 12 days
  Area of leaf: 13.2 cm^2
  Height: 8.1 cm
  Number of leaf: 3
  Number of tiller: 2
  Weight of root: 2.9 g
1 mg/l, 4 °C, 3 days
  Area of leaf: 10.7 cm^2
  Height: 7.3 cm
  Weight of root: 2.5 g
1 mg/l, 4 °C, 6 days
  Area of leaf: 12 cm^2
  Height: 7.5 cm
  Weight of root: 2.7 g
1 mg/l, 4 °C, 9 days
  Area of leaf: 13.2 cm^2
  Height: 7.8 cm
  Weight of root: 3.0 g
1 mg/l, 4 °C, 12 days
  Area of leaf: 14 cm^2
  Height: 8.2 cm
  Number of leaf: 3
  Number of tiller: 2
  Weight of root: 3.2 g
1 mg/l, 5 °C, 3 days
  Area of leaf: 11.1 cm^2
  Height: 7.4 cm
  Weight of root: 2.9 g
1 mg/l, 5 °C, 6 days
  Area of leaf: 13 cm^2
  Height: 7.4 cm
  Weight of root: 3.5 g
1 mg/l, 5 °C, 9 days
  Area of leaf: 18 cm^2
  Height: 8.1 cm
  Weight of root: 3.7 g
1 mg/l, 5 °C, 12 days
  Area of leaf: 20 cm^2
  Height: 8.3 cm
  Number of leaf: 3
  Number of tiller: 2
  Weight of root: 4.5 g
